Test results taken from patent US20220098203A1 (priority 2018, published 2022).

These compounds were tested against T1, MAT2A homodimer (Homo sapiens, UniProt P31153) (assay: MAT2A biochemical assay (liberated phosphate, PiColorLock Gold)). Settings: Table 5a; MAT2A biochemical assay; read-out: Enzyme Inhibition.
T1 construct: inferred from the Ni sepharose purification and imidazole elution; made in house; host or cells: SF9 insect cells, recombinant baculovirus (Bac to Bac, pFASTBAC1)
T1 sequence (P31153 whole entry): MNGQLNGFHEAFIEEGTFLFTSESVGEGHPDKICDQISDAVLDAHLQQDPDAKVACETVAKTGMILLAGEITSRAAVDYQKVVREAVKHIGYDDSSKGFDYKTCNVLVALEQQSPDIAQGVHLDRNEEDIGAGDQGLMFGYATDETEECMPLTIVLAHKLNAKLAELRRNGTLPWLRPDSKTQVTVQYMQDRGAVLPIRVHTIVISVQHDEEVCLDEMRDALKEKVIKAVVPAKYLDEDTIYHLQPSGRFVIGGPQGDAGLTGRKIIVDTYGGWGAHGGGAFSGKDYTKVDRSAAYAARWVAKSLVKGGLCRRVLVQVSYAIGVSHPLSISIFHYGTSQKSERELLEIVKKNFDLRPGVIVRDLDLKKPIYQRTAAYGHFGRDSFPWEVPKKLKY
Method: Mat2A protein was expressed by recombinant baculovirus in SF9 infected cells using the Bac to Bac system cloned into the pFASTBAC1 vector (Invitrogen, Carlsbad, Calif.). Recombinant MAT2A was isolated from the cell lysate of 150 g of infected cells using HP Ni sepharose column chromatography. Recombinant MAT2A homodimer was eluted with 250 and 500 mM imidazole, and fractions containing MAT2A were identified by sodium dodecyl sulfate polyacrylamide gel electrophoresis and pooled.
Test compound was prepared in 100% dimethyl sulfoxide (DMSO) at 50× the desired final concentration. A 1 μL volume of compound dilution was added to 40 μL of enzyme dilution and the mixture was allowed to equilibrate for 60 minutes at 25° C. The enzymatic assay was initiated by the addition of 10 μL of substrate mix (500 μM ATP, pH 7.0, 400 μM L-methionine in 1× assay buffer), and the mixture was incubated for a further 60 minutes at 25° C. The reaction was halted and the liberated phosphate released by the enzyme in stoichiometric amounts by the production of S-adenosyl methionine (SAM) was measured using the PiColorLock Gold kit (Innova Biosciences, UK). Absolute product amounts were determined by comparison to a standard curve of potassium phosphate buffer, pH 8.0.
An IC50 of under 100 nM was found for `CCOc1ccc2c(n1)N(c1ccc(OC(F)F)cc1)C(=O)N(c1ccnc(OC)c1)C2` [Example 111, 1-(4-(difluoromethoxy)phenyl)-7-ethoxy-3-(2-methoxypyridin-4-yl)-3,4-dihydropyrido[2,3-d]pyrimidin-2(1H)-one] in this work.
An IC50 of 1000 to 10000 nM was found for `CCOc1ccc2c(n1)N(c1ccc(OC)cc1)C(=O)N(c1ccc(C#N)cc1)C2` [Example 116, 4-(7-ethoxy-1-(4-methoxyphenyl)-2-oxo-1,2-dihydropyrido[2,3-d]pyrimidin-3(4H)-yl)benzonitrile] in this work.
An IC50 of 100 to 1000 nM was found for `CCOc1ccc2c(n1)N(c1ccc(OC)cc1)C(=O)N(c1ccc(F)cc1)C2` [Example 117, 7-ethoxy-3-(4-fluorophenyl)-1-(4-methoxyphenyl)-3,4-dihydropyrido[2,3-d]pyrimidin-2(1H)-one] in this work.
An IC50 of 1000 to 10000 nM was found for `CCOc1ccc2c(n1)N(c1ccc(OC)cc1)C(=O)N(c1ccc(NC)cc1)C2` [Example 121, 7-ethoxy-1-(4-methoxyphenyl)-3-(4-(methylamino)phenyl)-3,4-dihydropyrido[2,3-d]pyrimidin-2(1H)-one] in this work.
An IC50 of 100 to 1000 nM was found for `CCOc1ccc2c(n1)N(c1ccc(OC)cc1)C(=O)N(c1ccc(C(=O)NC)cc1)C2` [Example 126, 4-(7-ethoxy-1-(4-methoxyphenyl)-2-oxo-1,2-dihydropyrido[2,3-d]pyrimidin-3(4H)-yl)-N-methylbenzamide] in this work.
An IC50 of 100 to 1000 nM was found for `CCOc1ccc2c(n1)N(c1ccc(OC)cc1)C(=O)N(c1cncs1)C2` [Example 127, ethoxy-1-(4-methoxyphenyl)-3-(thiazol-5-yl)-3,4-dihydropyrido[2,3-d]pyrimidin-2(1H)-one] in this work.
An IC50 of 100 to 1000 nM was found for `CCOc1ccc2c(n1)N(c1cnc(C(F)(F)F)nc1)C(=O)N(c1ccc3nn(C)cc3c1)C2` [Example 148, 7-ethoxy-3-(2-methyl-2H-indazol-5-yl)-1-(2-(trifluoromethyl)pyrimidin-5-yl)-3,4-dihydropyrido[2,3-d]pyrimidin-2(1H)-one] in this work.
An IC50 of under 100 nM was found for `CCOc1ccc2c(n1)N(c1ccc(C(F)(F)F)nc1)C(=O)N(c1ccc3nn(C)cc3c1)C2` [Example 150] in this work.
An IC50 of 100 to 1000 nM was found for `CCOc1ccc2c(n1)N(c1ccc(C)nc1)C(=O)N(c1ccc3nn(C)cc3c1)C2` [Example 151, 7-ethoxy-3-(2-methyl-2H-indazol-5-yl)-1-(6-methylpyridin-3-yl)-3,4-dihydropyrido[2,3-d]pyrimidin-2(1H)-one] in this work.
An IC50 of 100 to 1000 nM was found for `COc1ccc(N2C(=O)N(c3ccc4nn(C)cc4c3)Cc3ccc(N4CCOCC4)nc32)cc1` [Example 157, 1-(4-methoxyphenyl)-3-(2-methyl-2H-indazol-5-yl)-7-morpholino-3,4-dihydropyrido[2,3-d]pyrimidin-2(1H)-one] in this work.
An IC50 of 100 to 1000 nM was found for `COc1ccc(N2C(=O)N(c3ccc4nn(C)cc4c3)Cc3ccc(N4CCCC4)nc32)cc1` [Example 158, 1-(4-methoxyphenyl)-3-(2-methyl-2H-indazol-5-yl)-7-(pyrrolidin-1-yl)-3,4-dihydropyrido[2,3-d]pyrimidin-2(1H)-one] in this work.
An IC50 of 1000 to 10000 nM was found for `CCN(CC)c1ccc2c(n1)N(c1ccc(OC)cc1)C(=O)N(c1ccc3nn(C)cc3c1)C2` [Example 159, 7-(diethylamino)-1-(4-methoxyphenyl)-3-(2-methyl-2H-indazol-5-yl)-3,4-dihydropyrido[2,3-d]pyrimidin-2(1H)-one] in this work.
An IC50 of 100 to 1000 nM was found for `COc1ccc(N2C(=O)N(c3ccc4nn(C)cc4c3)Cc3ccc(N(C)C)nc32)cc1` [Example 160, 7-(dimethylamino)-1-(4-methoxyphenyl)-3-(2-methyl-2H-indazol-5-yl)-3,4-dihydropyrido[2,3-d]pyrimidin-2(1H)-one] in this work.
An IC50 of 100 to 1000 nM was found for `[2H]C([2H])([2H])Oc1ccc(N2C(=O)N(c3ccc4nn(C)cc4c3)Cc3ccc(OCCC(F)(F)F)nc32)cc1` [Example 166, 1-(4-methoxy-d3-phenyl)-3-(2-methyl-2H-indazol-5-yl)-7-(3,3,3-trifluoropropoxy)-3,4-dihydropyrido[2,3-d]pyrimidin-2(1H)-one] in this work.
An IC50 of under 100 nM was found for `Cn1cc2cc(N3Cc4ccc(OCC(F)F)nc4N(c4ccc5nccn5c4)C3=O)ccc2n1` [Example 171, 7-(2,2-difluoroethoxy)-1-(imidazo[1,2-a]pyridin-6-yl)-3-(2-methyl-2H-indazol-5-yl)-3,4-dihydropyrido[2,3-d]pyrimidin-2(1H)-one] in this work.
An IC50 of 100 to 1000 nM was found for `Cn1cc2cc(N3Cc4ccc(OCC(F)F)nc4N(c4ccc5ncn(C)c5c4)C3=O)ccc2n1` [Example 173, 7-(2,2-difluoroethoxy)-1-(1-methyl-1H-benzo[d]imidazol-6-yl)-3-(2-methyl-2H-indazol-5-yl)-3,4-dihydropyrido[2,3-d]pyrimidin-2(1H)-one] in this work.
An IC50 of 100 to 1000 nM was found for `Cn1cc2cc(N3Cc4ccc(OCC(F)F)nc4N(c4ccc5ncnn5c4)C3=O)ccc2n1` [Example 174, 1-([1,2,4]triazolo[1,5-a]pyridin-6-yl)-7-(2,2-difluoroethoxy)-3-(2-methyl-2H-indazol-5-yl)-3,4-dihydropyrido[2,3-d]pyrimidin-2(1H)-one] in this work.
An IC50 of 100 to 1000 nM was found for `COc1ccc(N2Cc3cnc(NCC(F)(F)F)nc3N(c3ccc(S(C)(=O)=O)cc3)C2=O)cc1` [Example 189, 3-(4-methoxyphenyl)-1-(4-(methylsulfonyl)phenyl)-7-((2,2,2-trifluoroethyl)amino)-3,4-dihydropyrimido[4,5-d]pyrimidin-2(1H)-one] in this work.
An IC50 of under 100 nM was found for `Cn1cc2cc(N3Cc4cnc(OCC(F)(F)F)nc4N(c4ccc(-c5nc[nH]n5)cc4)C3=O)ccc2n1` [Example 191, 1-(4-(1H-1,2,4-triazol-3-yl)phenyl)-3-(2-methyl-2H-indazol-5-yl)-7-(2,2,2-trifluoroethoxy)-3,4-dihydropyrimido[4,5-d]pyrimidin-2(1H)-one] in this work.
An IC50 of 100 to 1000 nM was found for `COc1ccc(N2Cc3cnc(NCC(F)(F)F)nc3N(c3ccc(-c4cn[nH]n4)cc3)C2=O)cc1` [Example 192, 1-(4-(2H-1,2,3-triazol-4-yl)phenyl)-3-(4-methoxyphenyl)-7-((2,2,2-trifluoroethyl)amino)-3,4-dihydropyrimido[4,5-d]pyrimidin-2(1H)-one] in this work.
An IC50 of 1000 to 10000 nM was found for `COc1ccc(N2Cc3cnc(NCC(F)(F)F)nc3N(c3cn[nH]c3)C2=O)cc1` [Example 194, 3-(4-methoxyphenyl)-1-(1H-pyrazol-4-yl)-7-((2,2,2-trifluoroethyl)amino)-3,4-dihydropyrimido[4,5-d]pyrimidin-2(1H)-one] in this work.
An IC50 of 1000 to 10000 nM was found for `COc1ccc(N2Cc3cnc(NCC(F)(F)F)nc3N(c3ccc(O)nc3)C2=O)cc1` [Example 197, 1-(6-hydroxypyridin-3-yl)-3-(4-methoxyphenyl)-7-((2,2,2-trifluoroethyl)amino)-3,4-dihydropyrimido[4,5-d]pyrimidin-2(1H)-one] in this work.

Same assay, conditions: Table 5b; Additional Examples; read-out: Enzyme Inhibition
An IC50 of over 10000 nM was found for `COc1ccc(-n2c(=O)c3cnc(SC)nc3n(-c3ccc(OCc4ccccc4)cc3)c2=O)cc1` in this work.
An IC50 of 100 to 1000 nM was found for `COc1ccc(N2Cc3cnc(NCC(F)(F)F)nc3N(c3ccc(C(=O)N(C)C)cc3)C2=O)cc1` in this work.
An IC50 of 100 to 1000 nM was found for `COc1ccc(N2Cc3cnc(NCC(F)(F)F)nc3N(c3ccc(C(C)(C)CO)cc3)C2=O)cc1` in this work.
An IC50 of 100 to 1000 nM was found for `COc1ccc(N2C(=O)N(c3ccc4nn(C)cc4c3)Cc3cnc(NC4CCCC4)nc32)cc1` in this work.
An IC50 of 100 to 1000 nM was found for `COc1ccc(N2Cc3cnc(NCC(F)(F)F)nc3N(c3ccc(CC(C)O)cc3)C2=O)cc1` (stereo not shown) in this work.
An IC50 of over 10000 nM was found for `CCOc1ccc2c(n1)N(c1ccc(OC)cc1)C(=O)N(c1ccc(Cl)cc1)C2` in this work.
An IC50 of over 10000 nM was found for `COc1ccc(N2Cc3cnc(NCC(F)(F)F)nc3N(c3ccc(C(=O)O)cc3)C2=O)cc1` in this work.
An IC50 of over 10000 nM was found for `COc1ccc(-n2c(=O)c3cnc(NCC(F)(F)F)nc3n(-c3ccc(OCc4ccccc4)cc3)c2=O)cc1` in this work.
An IC50 of over 10000 nM was found for `COc1ccc(N2Cc3cnc(NCC4CC4)nc3N(c3ccccc3)C2=O)cc1` in this work.
An IC50 of over 10000 nM was found for `COc1ccc(N2Cc3cnc(NCC(F)(F)F)nc3N(c3ccc(-c4ccsc4)cc3)C2=O)cc1` in this work.
An IC50 of over 10000 nM was found for `COc1ccc(N2Cc3cnc(NCC(F)(F)F)nc3N(c3cccc(Br)c3)C2=O)cc1` in this work.
An IC50 of over 10000 nM was found for `COc1ccc(N2Cc3cnc(NCC(F)(F)F)nc3N(c3ncc(OC)cn3)C2=O)cc1` in this work.
An IC50 of over 10000 nM was found for `COc1ccc(-n2c(=O)c3cnc(S(C)(=O)=O)nc3n(-c3ccc(OCc4ccccc4)cc3)c2=O)cc1` in this work.
An IC50 of over 10000 nM was found for `COc1ccc(N2Cc3cnc(NCC(F)(F)F)nc3N(c3ccc(Cl)c(C(F)(F)F)c3)C2=O)cc1` in this work.
An IC50 of over 10000 nM was found for `COc1ccc(N2Cc3cnc(NCC(F)(F)F)nc3N(c3ccc(-c4ccccc4)cc3)C2=O)cc1` in this work.
An IC50 of over 10000 nM was found for `COc1ccc(N2C(=O)N(c3ccc4nn(C)cc4c3)Cc3ccc(Nc4ccccc4)nc32)cc1` in this work.
An IC50 of over 10000 nM was found for `COc1ccc(N2Cc3cnc(NCC(F)(F)F)nc3N(c3ccnnc3)C2=O)cc1` in this work.
An IC50 of over 10000 nM was found for `COc1ccc(N2C(=O)N(c3ccc4nn(C)cc4c3)Cc3ccc(N4CCC4)nc32)cc1` in this work.
An IC50 of over 10000 nM was found for `Cn1cc2cc(N3Cc4ccc(OCC(F)F)nc4NC3=O)ccc2n1` in this work.
An IC50 of over 10000 nM was found for `COc1ccc(N2Cc3cnc(SC)nc3N(c3ccc(Cl)c(C(F)(F)F)c3)C2=O)cc1` in this work.
An IC50 of over 10000 nM was found for `COc1ccc(N2Cc3cnc(NCC(F)(F)F)nc3N(C3CCNC(=O)C3)C2=O)cc1` (stereo not shown) in this work.
An IC50 of over 10000 nM was found for `COc1ccc(N2Cc3cnc(SC)nc3N(c3cccc(Br)c3)C2=O)cc1` in this work.
An IC50 of over 10000 nM was found for `COc1ccc(N2Cc3cnc(NCC(F)(F)F)nc3N(S(C)(=O)=O)C2=O)cc1` in this work.
An IC50 of over 10000 nM was found for `COc1ccc(N2Cc3cnc(-n4ccnc4)nc3N(c3ccc(O)cc3)C2=O)cc1` in this work.
